“And” between values parts separate entries of the source, which are not always exact repeats. Identical values can stand only once.
Columns and labels:
Type in all cases: cell-based, human
[1] = system: firefly luciferase (Fluc) gene with UGA nonsense codon at position 109 in HeLa cells; experiment: Firefly luciferase readthrough assay, UGA PTC construct; conditions: for Concentration of maximal efficacy, UGA readthrough (luciferase) / EC50: Fig. 1D; for Concentration of maximal efficacy, UGA readthrough (luciferase): peer review file; for Correction of the UGA nonsense mutation (luciferase activity), in words: Fig. 1c; for EC50: authors' reply in peer review file, removed from final text
Excerpt: To identify the compounds responsible for this activity, a semi-preparative HPLC fractionation protocol was used. […] (Fig. 1b). DMSO and G418 were used, respectively, as a negative and a positive control.
The value of each luciferase measurement is presented in the Source Data File. All data shown in c, d are representative of two independent experiments. Source data are provided as a Source Data file.
HeLa cells were transfected with the FLuc-int-UGA construct using lipofectamine 3000 (Life technologies) according to the manufacturer’s recommendations. […] Steadylite plus luciferase substrate (Perkin Elmer, Waltham, MA, USA) was then added to each well before measuring the visible light from each well for 10 s with a Tristar luminometer (Berthold technologies, Versailles, France). The plate was read twice and the reported values are averages of the two reads.

[2] = system: endogenous TP53 gene with UGA nonsense mutation in Calu-6 cells; experiment: p53 protein western blot, Calu-6 cells; conditions: 24 h
Protocol: After 24 h of treatment, proteins were extracted from the cells and the p53 protein was assessed by western blotting (Fig. 2a). After DMSO mock treatment, as anticipated, no p53 protein was detected, because of the presence of the PTC in p53 mRNA[33].
The three leftmost lanes show twofold serial dilutions of untreated HeLa cell extract. The molecular weight is indicated to the left of each gel. b Schematic representation of the construct used to measure the function of p53. The construct carries a cDNA encoding the firefly luciferase under a promoter having two p53-responsive elements (underlined). […] The level of p21 mRNA is related to the amount of functional p53 protein synthesized in the cell. The results presented in panels b and c are representative of at least two independent experiments., p-values (p) were calculated using Student’s t-test. Source data are provided as a Source Data file.
Proteins were extracted from 2 × 10^6 cells in lysis buffer containing 5% SDS, 50 mM Tris–HCl pH 7, 20 mM EDTA, and a protease inhibitor cocktail (HALT Protease Inhibitor Cocktail, Pierce-Biotechnology, Rockford, IL, USA). Lysates were subjected to 30 pulses of sonication (Branson Digital Sonifier/amplitude 20%) before a 5 min centrifugation at 8000×g.
The equivalent of 2.5 × 10^5 cells was subjected to 10% SDS–PAGE before transfer of the proteins to a nitrocellulose membrane. […] Antibodies were then detected with Super Signal West Femto Maximum Sensitivity Substrate (Pierce-Biotechnology, Rockford, IL, USA). Quantifications were performed with QuantityOne software (Biorad). […]

[3] = system: nonsense-mediated mRNA decay (NMD) in Calu-6 cells; experiment: NMD efficiency: p53 mRNA / GAPDH mRNA by RT-PCR; conditions: 24 h; for Ratio of p53 mRNA to GAPDH mRNA: 600µM
Protocol: Source data are provided as a Source Data file.
Total RNA was purified from Calu-6 cells after 24 h of treatment.
RNA was purified using RNazol (MRC) according to the manufacturer’s instructions. 1/5 of the RNA preparation was used for reverse-transcription (RT) PCR (RT-PCR) using Superscript II (Life Technologies) for 2 h at 42 °C in the presence of random hexamers. The resulting cDNAs were PCR amplified in the presence of dCTP(α^33P) (Perkin Elmer) with the following primers: GAPDH mRNA (sense: 5′-[…]-3′; antisense: 5′-[…]-3′), p53 mRNA (sense: 5′-[…]-3′; antisense: 5′-[…]-3′), p21 mRNA (sense: 5′-[…]-3′; antisense: 5′-[…]-3′). PCR products were quantified with Personal Molecular Imager and QuantityOne quantification software (Bio-Rad).

SMILES | Luciferase activity, UGA PTC, dose response ([1]; 0.39µM, Exp. 1) | Luciferase activity, UGA PTC, dose response ([1]; 0.39µM, Exp. 2) | Luciferase activity, UGA PTC, dose response ([1]; 0.39µM, average) | Luciferase activity, UGA PTC, dose response ([1]; 0.78µM, Exp. 1) | Luciferase activity, UGA PTC, dose response ([1]; 0.78µM, Exp. 2) | Luciferase activity, UGA PTC, dose response ([1]; 0.78µM, average) | Luciferase activity, UGA PTC, dose response ([1]; 1.56µM, Exp. 1) | Luciferase activity, UGA PTC, dose response ([1]; 1.56µM, Exp. 2) | Luciferase activity, UGA PTC, dose response ([1]; 1.56µM, average) | Luciferase activity, UGA PTC, dose response ([1]; 6.25µM, Exp. 1) | Luciferase activity, UGA PTC, dose response ([1]; 6.25µM, Exp. 2) | Luciferase activity, UGA PTC, dose response ([1]; 6.25µM, average) | Luciferase activity, UGA PTC, dose response ([1]; 25µM, Exp. 1) | Luciferase activity, UGA PTC, dose response ([1]; 25µM, Exp. 2) | Luciferase activity, UGA PTC, dose response ([1]; 25µM, average) | Luciferase activity, UGA PTC, dose response ([1]; 100µM, Exp. 1) | Luciferase activity, UGA PTC, dose response ([1]; 100µM, Exp. 2) | Luciferase activity, UGA PTC, dose response ([1]; 100µM, average) | Luciferase activity, UGA PTC, dose response ([1]; 300µM, Exp. 1) | Luciferase activity, UGA PTC, dose response ([1]; 300µM, Exp. 2) | other results
Nc1nc(N)c2[nH]cnc2n1 [DAP, 2,6-diaminopurine] | 1186.95 | 737.25 | 962±318 and 962.101 | 1503.98 | 977.5 | 1241±372 and 1240.74 | 2085.73 | 1374.25 | 1730±503 and 1729.99 | 7245.46 | 4897.5 | 6071±1660 and 6071.48 | 48084 | 33252.2 | 40668±10487 and 40668.1 | 351175 | 246890 | 299032±73740 and 299033 | 257964 | 190894 | Luciferase activity, UGA PTC, dose response ([1]; 300µM, average): 224429±47425 and 224429; Luciferase activity, UGA PTC, dose response ([1]; 600µM, Exp. 1): 134395; Luciferase activity, UGA PTC, dose response ([1]; 600µM, Exp. 2): 97365.8; Luciferase activity, UGA PTC, dose response ([1]; 600µM, average): 115880±26184 and 115881; Luciferase activity, UGA PTC ([1]; DAP 3.75µM, average of 2 experiments): 20599.75±1015 and 20599.8; Luciferase activity, UGA PTC ([1]; DAP 3.75µM, experiment 1): 19882; Luciferase activity, UGA PTC ([1]; DAP 3.75µM, experiment 2): 21317.5; Luciferase activity, UGA PTC ([1]; DAP 37.5µM, average of 2 experiments): 35939.75±1176 and 35939.8; Luciferase activity, UGA PTC ([1]; DAP 37.5µM, experiment 1): 36771; Luciferase activity, UGA PTC ([1]; DAP 37.5µM, experiment 2): 35108.5; Concentration of maximal efficacy, UGA readthrough (luciferase) [1]: 100 µM; Correction of the UGA nonsense mutation (luciferase activity), in words [1]: exclusive correction of the UGA nonsense mutation; EC50 ([1]; Homo sapiens): ~50 µM; Synthesis of p53 protein (western blot) ([2]; Calu-6 (UGA)): dose-dependent synthesis of the p53 protein; Lowest concentration at which p53 protein was detected ([2]; Calu-6, western blot): 1.56 µM; NMD inhibition, in words ([3]; both tested concentrations): failed to inhibit NMD significantly
CN[C@@H]1[C@@H](O)[C@@H](O[C@@H]2[C@@H](O)[C@H](O[C@H]3O[C@H]([C@@H](C)O)[C@@H](O)[C@H](O)[C@H]3N)[C@@H](N)C[C@H]2N)OC[C@]1(C)O [G418, reference compound] | 701.361 | 678.75 | 690±16 and 690.055 | 783.19 | 761.5 | 772±15 and 772.345 | 853.418 | 829 | 841±17 and 841.209 | 1017.65 | 990.5 | 1004±19 and 1004.07 | 1013.6 | 986 | 1000±19 and 999.799 | 1134.07 | 1106 | 1120±20 and 1120.03 | 1723.63 | 1679.5 | Increase in luciferase activity relative to background level ([1]; 300 µM, UGA): about twice the background level; Luciferase activity, UGA PTC, dose response ([1]; 300µM, average): 1702±31 and 1701.56; Luciferase activity, UGA PTC, dose response ([1]; 600µM, Exp. 1): 1231.27; Luciferase activity, UGA PTC, dose response ([1]; 600µM, Exp. 2): 1202; Luciferase activity, UGA PTC, dose response ([1]; 600µM, average): 1217±21 and 1216.63; EC50 [1]: ~100 µM; Concentration of maximal efficacy, UGA readthrough (luciferase) [1]: 300 µM; Correction of the UGA nonsense mutation (luciferase activity), in words [1]: corrected the UGA more efficiently than the UAG nonsense mutation; Luciferase activity, UGA PTC ([1]; G418 1mg/ml, average of 2 experiments): 8466.25±478 and 8466.25; Luciferase activity, UGA PTC ([1]; G418 1mg/ml, experiment 1): 8804.5; Luciferase activity, UGA PTC ([1]; G418 1mg/ml, experiment 2): 8128; p53 protein detection (western blot) ([2]; 25 µM, Calu-6): barely detected; Ratio of p53 mRNA to GAPDH mRNA ([3]; average): 0.3943; Ratio of p53 mRNA to GAPDH mRNA ([3]; experiment 1): 0.4107; Ratio of p53 mRNA to GAPDH mRNA ([3]; experiment 2): 0.3778; Increase in p53 mRNA [3]: 1.8 fold

Source: paper PMC7083880 (Nature Communications, 2020)
